Molecules are shown by their SMILES.

Data set [1] concerns Mycosphaerella arachidis (Cercospora arachidicola). Put plainly: Mycosphaerella arachidis (Cercospora arachidicola) / liquid culture (early leaf spot). The data set is classed as cell-based. The conditions noted are these: growth inhibition photometrically 4-5 days after application, compared to untreated control. The method, then:
9. Mycosphaerella arachidis (Cercospora arachidicola)/Liquid Culture (Early Leaf Spot) Conidia of the fungus from cryogenic storage are directly mixed into nutrient broth (PDB potato dextrose broth). After placing a (DMSO) solution of test compound into a microtiter plate (96-well format), the nutrient broth containing the fungal spores is added. The test plates are incubated at 24° C. and the inhibition of growth is determined photometrically 4-5 days after application.

A further data set concerns Gaeumannomyces graminis. As to the kind of experiment: Gaeumannomyces graminis / liquid culture (take-all of cereals). The note with it: growth inhibition photometrically 4-5 days after application, compared to untreated control. The data set is classed as cell-based. In short, it runs like this:
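Mycelial fragments from cryogenic storage in potato dextrose broth added to compound in DMSO, 96-well format. Incubated at 24° C; growth inhibition read photometrically 4-5 days after application.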

Data set [2] has as its system Mycosphaerella graminicola (Septoria tritici). Put plainly: Mycosphaerella graminicola (Septoria tritici) / liquid culture (Septoria blotch). The data set is classed as cell-based. The conditions noted are these: Zymoseptoria tritici, growth inhibition photometrically 4-5 days after application, compared to untreated control. On the procedure: 18. Mycosphaerella graminicola (Septoria tritici)/Liquid Culture (Septoria Blotch) Conidia of the fungus from cryogenic storage are directly mixed into nutrient broth (PDB potato dextrose broth). After placing a (DMSO) solution of test compound into a microtiter plate (96-well format), the nutrient broth containing the fungal spores is added. The test plates are incubated at 24° C. and the inhibition of growth is determined photometrically 4-5 days after application.

The test system of data set [3] is Thanatephorus cucumeris (Rhizoctonia solani). As to the kind of experiment: Thanatephorus cucumeris (Rhizoctonia solani) / liquid culture (foot rot, damping-off). The data set is classed as cell-based. The note with it: growth inhibition photometrically 3-4 days after application, compared to untreated control. The method, then: 16. Thanatephorus cucumeris (Rhizoctonia solani)/Liquid Culture (Foot Rot, Damping-Off) Mycelia fragments of a newly grown liquid culture of the fungus are directly mixed into nutrient broth (PDB potato dextrose broth). After placing a (DMSO) solution of the test compounds into a microtiter plate (96-well format), the nutrient broth containing the fungal material is added. The test plates are incubated at 24° C. and the inhibition of growth is determined photometrically 3-4 days after application.

Data set [4] deals with Monographella nivalis (Microdochium nivale). Put plainly: Monographella nivalis (Microdochium nivale) / liquid culture (foot rot cereals). The note with it: growth inhibition photometrically 4-5 days after application, compared to untreated control. The data set is classed as cell-based. In short, it runs like this:
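Conidia from cryogenic storage were mixed into potato dextrose broth and added to wells holding test compound in DMSO. Incubation was at 24° C, with growth inhibition measured photometrically 4-5 days after application.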

The next data set has as its system Phytophthora infestans. As to the kind of experiment: whole plant or invertebrate. The data set is classed as in vivo. The note with it: in Solanum lycopersicum, foliar, read-out: control of Phytophthora infestans.
The test system of another data set is Sclerotinia sclerotiorum. As to the kind of experiment: Sclerotinia sclerotiorum / liquid culture (cottony rot). The conditions noted are these: growth inhibition photometrically 3-4 days after application, compared to untreated control. The data set is classed as cell-based. The method, then:
17. Sclerotinia sclerotiorum/Liquid Culture (Cottony Rot) Mycelia fragments of a newly grown liquid culture of the fungus are directly mixed into nutrient broth (PDB potato dextrose broth). After placing a (DMSO) solution of test compound into a microtiter plate (96-well format) the nutrient broth containing the fungal material is added. The test plates are incubated at 24° C. and the inhibition of growth is determined photometrically 3-4 days after application.

The subject of data set [5] is Glomerella lagenarium (Colletotrichum lagenarium). Put plainly: Glomerella lagenarium (Colletotrichum lagenarium) / liquid culture (anthracnose). The data set is classed as cell-based. The note with it: Colletotrichum orbiculare, growth inhibition photometrically 3-4 days after application, compared to untreated control. In short, it runs like this:
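Conidia from cryogenic storage suspended in potato dextrose broth and added to test compound in DMSO. Incubation at 24° C; growth inhibition read photometrically 3-4 days after application.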

In another data set the test system is Pythium ultimum. Put plainly: Pythium ultimum / liquid culture (seedling damping off). The data set is classed as cell-based. The note with it: Globisporangium ultimum, growth inhibition photometrically 2-3 days after application, compared to untreated control. In short, it runs like this: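 Fungal mycelia fragments and oospores from fresh liquid culture mixed into potato dextrose broth and added to DMSO solutions of test compound. Incubated at 24° C.; growth inhibition read photometrically 2-3 days after application.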

For a further data set, the system named is Pyrenophora teres. As to the kind of experiment: Pyrenophora teres / barley / leaf disc preventative (net blotch). The data set is classed as in vivo. The conditions noted are these: 200 ppm, barley leaf segments, inoculated 2 days after application, compared to untreated control. On the procedure: 14. Pyrenophora teres/Barley/Leaf Disc Preventative (Net Blotch) Barley leaf segments cv. Hasso are placed on agar in a multiwell plate (24-well format) and sprayed with the formulated test compound diluted in water. The leaf segments are inoculated with a spore suspension of the fungus 2 days after application. The inoculated leaf segments are incubated at 20° C. and 65% rh under a light regime of 12 h light/12 h darkness in a climate cabinet and the activity of a compound is assessed as disease control compared to untreated when an appropriate level of disease damage appears in untreated check leaf segments (5-7 days after application).

Data set [6] has as its system Puccinia recondite f. sp. tritici. Put plainly: Puccinia recondite f. sp. tritici / wheat / leaf disc preventative (brown rust). The data set is classed as in vivo. The conditions noted are these: foliar, wheat leaf segments, inoculated 1 day after application, compared to untreated control. The method, then: 13. Puccinia recondite f. Sp. Tritici/Wheat/Leaf Disc Preventative (Brown Rust) Wheat leaf segments cv. Kanzler are placed on agar in multiwell plates (24-well format) and sprayed with the formulated test compound diluted in water. The leaf disks are inoculated with a spore suspension of the fungus 1 day after application. The inoculated leaf segments are incubated at 19° C. and 75% rh under a light regime of 12 h light/12 h darkness in a climate cabinet and the activity of a compound is assessed as percent disease control compared to untreated when an appropriate level of disease damage appears in untreated check leaf segments (7-9 days after application).

The test system of data set [7] is Blumeria graminis f. sp. tritici (Erysiphe graminis f. sp. tritici). Put plainly: Blumeria graminis f. sp. tritici / wheat / leaf disc preventative (powdery mildew on wheat). The data set is classed as in vivo. The note with it: 200 ppm, wheat leaf segments, inoculated 1 day after application, compared to untreated control. On the procedure:
4. Blumeria Graminis f. Sp. Tritici (Erysiphe graminis f. Sp. Tritici)/Wheat/Leaf Disc Preventative (Powdery Mildew on Wheat)
Wheat leaf segments cv. Kanzler are placed on agar in a multiwell plate (24-well format) and sprayed with the formulated test compound diluted in water. The leaf disks are inoculated by shaking powdery mildew infected plants above the test plates 1 day after application. The inoculated leaf disks are incubated at 20° C. and 60% rh under a light regime of 24 h darkness followed by 12 h light/12 h darkness in a climate chamber and the activity of a compound is assessed as percent disease control compared to untreated when an appropriate level of disease damage appears on untreated check leaf segments (6-8 days after application).

Regarding `COc1c(C(=O)OCn2cccn2)ccc2c1B(O)OC2` [Compound 86, pyrazol-1-ylmethyl 1-hydroxy-7-methoxy-3H-2,1-benzoxaborole-6-carboxylate], the inhibition of growth at 20 ppm (in data set [1]; in the data set with Gaeumannomyces graminis; in [2]; in data set [3]; in data set [4]; with Sclerotinia sclerotiorum) was not below 80% each time. For the same molecule, the inhibition of growth at 20 ppm (in data set [5]; in the data set on Pythium ultimum) was not below 80% each time. The pest or weed control at 200 ppm in the data set on Phytophthora infestans was not below 80%.

With `CCc1ccc(NC(=O)c2ccc3c(c2OC)B(O)OC3)cc1` [Compound 29, N-(4-ethylphenyl)-1-hydroxy-7-methoxy-3H-2,1-benzoxaborole-6-carboxamide], the inhibition of growth at 20 ppm (in data set [2]; in data set [4]; in [5]; in the data set on Pythium ultimum) was not below 80% throughout. Further, the “control of Pyrenophora teres” value in the data set with Pyrenophora teres is “at least 80%”.

`COC(=O)c1ccc2c(c1Cl)B(O)OC2` [Compound 3, methyl 7-chloro-1-hydroxy-3H-2,1-benzoxaborole-6-carboxylate]: the pest or weed control at 200 ppm (in [6]; in the data set on Phytophthora infestans) was not below 80% in each case. Moreover, the inhibition of growth at 20 ppm (in data set [1]; in data set [2]; in data set [3]; in data set [4]; in the data set on Sclerotinia sclerotiorum; in data set [5]) was not below 80% each time. Also, in the data set on Pythium ultimum, the inhibition of growth at 20 ppm is not below 80%.

Molecule `COc1c(C(=O)O)ccc2c1B(O)OC2` [Compound 131, 1-hydroxy-7-methoxy-3H-2,1-benzoxaborole-6-carboxylic acid] gave a melting point of 181 to 182.4 °C.

Regarding `COc1c(C(=O)OCCOC(C)C)ccc2c1B(O)OC2` [Compound 109, 2-isopropoxyethyl 1-hydroxy-7-methoxy-3H-2,1-benzoxaborole-6-carboxylate], the inhibition of growth at 20 ppm (in the data set on Gaeumannomyces graminis; in [4]; with Pythium ultimum) was not below 80% throughout. Besides, in the data set on Phytophthora infestans, the pest or weed control at 200 ppm was not below 80%.

As for `COc1c(C(=O)NC(C)c2ncc(F)cc2F)ccc2c1B(O)OC2` (stereo not drawn) [Compound 20, N-[1-(3,5-difluoro-2-pyridyl)ethyl]-1-hydroxy-7-methoxy-3H-2,1-benzoxaborole-6-carboxamide], in data set [7], the “control of Blumeria graminis f. sp. tritici” value is on record as “at least 80%”.

As for `COc1c(C(=O)OCn2nc(C)cc2C)ccc2c1B(O)OC2` [Compound 103, (3,5-dimethylpyrazol-1-yl)methyl 1-hydroxy-7-methoxy-3H-2,1-benzoxaborole-6-carboxylate], the inhibition of growth at 20 ppm in the data set with Gaeumannomyces graminis and in the data set on Pythium ultimum was not below 80% throughout. The pest or weed control at 200 ppm in the data set on Phytophthora infestans was not below 80%.

Take `COc1c(C(=O)OCC(F)F)ccc2c1B(O)OC2` [Compound 12, 2,2-difluoroethyl 1-hydroxy-7-methoxy-3H-2,1-benzoxaborole-6-carboxylate]: the inhibition of growth at 20 ppm (in the data set with Gaeumannomyces graminis; in data set [2]; in [4]; in [5]; with Pythium ultimum) was not below 80% throughout. For the same molecule, the pest or weed control at 200 ppm in the data set with Phytophthora infestans is not below 80%.

Regarding `COC(=O)c1ccc2c(c1O)B(O)OC2` [Compound 2, methyl 1,7-dihydroxy-3H-2,1-benzoxaborole-6-carboxylate], the melting point is 146 to 148 °C. The molecule also had an inhibition of growth at 20 ppm in data set [1] not below 80%. The molecule further had an inhibition of growth at 20 ppm with Gaeumannomyces graminis not below 80%. The molecule further had an inhibition of growth at 20 ppm in [2] not below 80%. Moreover, in [3], the inhibition of growth at 20 ppm is not below 80%. Besides, the inhibition of growth at 20 ppm in data set [4] was not below 80%. Besides, the pest or weed control at 200 ppm in the data set on Phytophthora infestans is not below 80%. The inhibition of growth at 20 ppm in the data set with Sclerotinia sclerotiorum was not below 80%. Also, the inhibition of growth at 20 ppm in [5] was not below 80%. Also, the inhibition of growth at 20 ppm with Pythium ultimum was not below 80%.

In the case of `COC(=O)c1ccc2c(c1OC)B(O)OC2` [Compound 1, methyl 1-hydroxy-7-methoxy-3H-2,1-benzoxaborole-6-carboxylate], the inhibition of growth at 20 ppm (in [1]; in the data set with Gaeumannomyces graminis; in [2]; in [3]; in [4]; in the data set on Sclerotinia sclerotiorum) was not below 80% each time. Besides, the inhibition of growth at 20 ppm (in data set [5]; in the data set with Pythium ultimum) was not below 80% throughout. Moreover, the pest or weed control at 200 ppm in the data set with Phytophthora infestans was not below 80%.

Take `CCOC(=O)c1ccc2c(c1Cl)B(O)OC2` [Compound 9, ethyl 7-chloro-1-hydroxy-3H-2,1-benzoxaborole-6-carboxylate]: the melting point was in the range of 132 to 133 °C. The molecule also showed a pest or weed control at 200 ppm in data set [6] not below 80%. The molecule further displayed an inhibition of growth at 20 ppm in the data set with Gaeumannomyces graminis not below 80%. In data set [2], this molecule gave an inhibition of growth at 20 ppm not below 80%. This molecule registered an inhibition of growth at 20 ppm in [3] not below 80%. This molecule also displayed an inhibition of growth at 20 ppm in data set [4] not below 80%. Moreover, the pest or weed control at 200 ppm in the data set with Phytophthora infestans was not below 80%. Further, in data set [5], the inhibition of growth at 20 ppm is not below 80%. The molecule further came in with an inhibition of growth at 20 ppm in the data set on Pythium ultimum not below 80%.

For orientation: inhibition of growth means the change of the read-out against control, counted positive when it falls. High values mean strong suppression, low ones little suppression. The melting point is the temperature of the solid-liquid transition.

The record behind these values is patent US20180244699A1, “1-HYDROXY-3H-2,1-BENZOXABOROLE DERIVATIVES AND THEIR USE AS MICROBIOCIDES” (Syngenta Participations AG, priority 2015, published 2018).
